Here are results for 27 molecules from ChEMBL document CHEMBL1641564, “In vitro evaluation of 5-arylidene-2-thioxo-4-thiazolidinones active as aldose reductase inhibitors” (Bioorg Med Chem Lett, 2011).

What is called inhibition is how much of the control response was suppressed. As a reminder, the IC50 is the concentration needed to halve the response being measured.

In one assay the target is T1, Aldo-keto reductase family 1 member B1 (Homo sapiens, UniProt P15121). Nature of the assay: Inhibition of aldose reductase at 37 uM.
`O=C1N=C(O)S/C1=C\c1ccc(Oc2ccccc2)cc1` returned an inhibition of 41%.

A further assay addresses T1, Aldo-keto reductase family 1 member B1. Nature of the assay: Inhibition of aldose reductase at 50 uM.
Turning to `O=C1N=C(O)S/C1=C\c1ccc(OCc2ccccc2)cc1`, the inhibition is 10%. In turn, `O=C1NC(=O)/C(=C/c2ccc(-c3ccccc3)cc2)S1` gave an inhibition of 20%.

The target in the next assay is Aldo-keto reductase family 1 member B1 (Bos taurus) (UniProt P16116). Nature of the assay: Inhibition of bovine lens aldose reductase assessed as inhibition of […] oxidation at 16 uM by non-linear regression analysis.
On to `O=C1NC(=S)S/C1=C\c1ccc2ccccc2c1`, for which the inhibition was determined as 40%.

A further assay has the same target. Nature of the assay: Inhibition of bovine lens aldose reductase assessed as inhibition of […] oxidation at 13 uM by non-linear regression analysis.
`O=C1NC(=S)S/C1=C\c1ccc(-c2ccccc2)cc1`: the inhibition is 28%.

For the next assay the target is unchanged. Nature of the assay: Inhibition of bovine lens aldose reductase assessed as inhibition of […] oxidation at 11 uM by non-linear regression analysis.
On to `O=C1NC(=S)S/C1=C\c1ccc(OCc2ccccc2)cc1`, for which the inhibition came out at 7%.

In another assay the target is T1, Aldo-keto reductase family 1 member B1. Nature of the assay: Inhibition of aldose reductase.
On to `O=C(O)CN1C(=O)S/C(=C\c2ccc(OCc3ccccc3)cc2)C1=O`, for which the IC50 was found to be 0.28 µM. With `O=C1NC(=O)/C(=C/c2ccc(O)cc2)S1`, the IC50 stood at 8.96 µM. The molecule `COc1cccc(/C=C2\SC(=O)NC2=O)c1` had a 50% inhibitory concentration (IC50) of 13.3 µM. In the case of `COc1cccc(/C=C2\SC(=O)N(CC(=O)O)C2=O)c1`, the IC50 was 0.48 µM. `COc1ccc(/C=C2\SC(=O)NC2=O)cc1`: the 50% inhibitory concentration (IC50) worked out at 40.8 µM. Molecule `O=C(O)CN1C(=O)S/C(=C\c2cccc(Oc3ccccc3)c2)C1=O` yielded a 50% inhibitory concentration (IC50) of 0.13 µM. In turn, `O=C1NC(=O)/C(=C/c2cccc(Oc3ccccc3)c2)S1` yielded an IC50 of 6.14 µM. `O=C(O)CN1C(=O)S/C(=C\c2ccc(Oc3ccccc3)cc2)C1=O` showed an IC50 of 0.82 µM.

`O=C1NC(=O)/C(=C/c2cccc3ccccc23)S1` came in with a 50% inhibitory concentration (IC50) of 10.7 µM.

The next assay has as its target Aldo-keto reductase family 1 member B1 (Bos taurus, UniProt P16116). Nature of the assay: Inhibition of bovine lens aldose reductase assessed as inhibition of […] oxidation by non-linear regression analysis.
With `O=C(O)CN1C(=O)/C(=C/c2ccc(Oc3ccccc3)cc2)SC1=S`, the 50% inhibitory concentration (IC50) was 110 nM.

On to `COc1cccc(/C=C2\SC(=S)N(CC(=O)O)C2=O)c1`, for which the IC50 came out at 150 nM. Still for that read-out and setting: the same measure for `O=C1NC(=S)S/C1=C\c1cccc2ccccc12`: 2270 nM.

With `O=C1NC(=S)S/C1=C\c1ccc(Oc2ccccc2)cc1`, the 50% inhibitory concentration (IC50) was determined as 1100 nM.

Turning to `COc1ccc(/C=C2\SC(=S)NC2=O)cc1`, the IC50 turned out to be 5230 nM. Turning to `O=C1NC(=S)S/C1=C\c1ccc(O)cc1`, the half-maximal inhibitory concentration (IC50) worked out at 4550 nM.

On to `O=C1NC(=S)S/C1=C\c1cccc(OCc2ccccc2)c1`, for which the half-maximal inhibitory concentration (IC50) is 1080 nM. On the same count and under the same terms, the same measure for `COc1cccc(/C=C2\SC(=S)NC2=O)c1`: 6240 nM; for `O=C(O)CN1C(=O)/C(=C/c2cccc(Oc3ccccc3)c2)SC1=S`: 410 nM; for `O=C1NC(=S)S/C1=C\c1cccc(Oc2ccccc2)c1`: 2940 nM. With `O=C(O)CN1C(=O)/C(=C/c2ccc(OCc3ccccc3)cc2)SC1=S`, the IC50 is 190 nM. The same measure, in the same setting: as for `O=C(O)CN1C(=O)/C(=C/c2cccc(OCc3ccccc3)c2)SC1=S`, the figure is 130 nM.
